Measured values from patent publication US20210128537A1, “T-TYPE CALCIUM CHANNEL MODULATORS AND METHODS OF USE THEREOF” (Praxis Precision Medicines, inc., priority 2016, published 2021).

Tested on: post-SE rats
Assay: Kainic acid induced post-status epilepticus model, video-EEG seizure analysis
Assay type: in vivo, rat
Method: Pumps were filled with either Z944 to deliver a daily dose of 60 mg/kg, levetiracetam to deliver a daily dose of 200 mg/kg or vehicle. For the drug tolerability study, osmotic pumps continuously either Z944, levetiracetam or vehicle for 7 days and for the post-SE study osmotic pumps delivered continuously the different treatments for 28 days.
FIG. 11 summarizes the different methods used on this experimental paradigm.
Animals were implanted with subdural EEG recording electrodes and one week after surgery, the animals were connected using cables that allowed them free movement around their cage. A repeated low dose KA administration protocol was used. Rats were injected i.p. with an initial dose of KA 7.5 mg/kg plus 3 ml of normal saline to prevent dehydration. Animals were monitored for 45 minutes for EEG and behavioural seizures based on the Racine scale. […] This was repeated up to 2 times every 45 minutes. An animal was eliminated from the experiment if it didn't show a stable self-sustained SE after a maximum KA total dose of 15 mg/kg. Two sham groups were treated identically but received saline injections instead of KA. After four hours of sustained electroencephalographic and behavioural seizures the animals were randomly allocated to one of the five treatment groups: sham+vehicle (n=6), sham+Z944 (n=6), post-SE+vehicle (n=8), post-SE+Z944 (n=8), post-SE+levetiracetam (n=9).
Animals were anesthetized and implanted with subcutaneous osmotic pumps containing either vehicle Z944 (60 mg/kg/day), or levetiracetam (200 mg/kg/day) that delivered the treatment continuously for 4 weeks. Immediately after the pump implantation, SE was stopped with diazepam (5 mg/kg/dose).
vEEG recordings commenced at least 4 h prior the induction of SE to provide baseline recordings. The video-EEG recordings continued for the whole duration of the treatment period, i.e. four weeks after the termination of the SE. […] EEG analysis was performed in a blinded manner and confirmed by two different observers. All EEG recordings were visually and manually annotated using Profusion 3 software. A seizure was defined as an episode of rhythmic spiking activity that was three times the baseline amplitude and a frequency >5 Hz that lasted at least 10 s. The end of a seizure was determined as the last spike. The average number of seizures per day, average seizure duration and seizure class (severity) were analysed.

**Q.** With `CC(C)(C)NC(=O)CN1CCC(CNC(=O)c2cc(F)cc(Cl)c2)CC1` [Z944] as the compound, how does the “seizures on EEG after drug washout (seizures per day, duration, severity)” value (60 mg/kg/day for 4 weeks, EEG after 4 weeks from drug washout) read?
**A.** Its value is “Anti-Epileptogenic”.

**Q.** What about the “seizures on EEG during treatment (seizures per day, duration, severity)” value (60 mg/kg/day, during the 4 weeks of continuous treatment after SE) of the same compound?
**A.** The value was “Anti-Epileptogenic Effects”.

**Q.** And the “number of seizures in each animal that developed seizures” value (in two weeks of vEEG after drug washout)?
**A.** The value was “one”.

**Q.** What about the “neurological adverse effects after prolonged treatment” value (osmotic pump 4 weeks, Z944 60 mg/kg/day, levetiracetam 200 mg/kg/day) of the same compound?
**A.** The value was “only transient and minor neurological adverse effects”.

**Q.** And the “treated animals that developed seizures” value (two weeks of vEEG after 4 weeks drug washout, n=8)?
**A.** Its value is “two of the eight”.
